Results taken from patent publication US9145415B2, “Nitrogen-containing heterocyclic compound or salt thereof” (FUJIFILM Corporation, priority 2012, dated 2015).
Read-outs that look alike come from different tables or passages of the source.

Legend:
[1] = biological target: T1, human FLT3 protein (FLT3 (WT)) (Homo sapiens, UniProt P36888); experiment: FLT3 inhibition test (FLT3 enzyme inhibition, time-resolved fluorescence of substrate peptide phosphorylation); type: biochemical; conditions: read-out: FLT3 (WT) enzyme inhibition activity
T1 construct: human FLT3 protein (intracellular region, 564 to 993 aa); GST; purchased Carna Biosciences; host or cells: baculovirus expression system
T1 sequence (P36888 564-993): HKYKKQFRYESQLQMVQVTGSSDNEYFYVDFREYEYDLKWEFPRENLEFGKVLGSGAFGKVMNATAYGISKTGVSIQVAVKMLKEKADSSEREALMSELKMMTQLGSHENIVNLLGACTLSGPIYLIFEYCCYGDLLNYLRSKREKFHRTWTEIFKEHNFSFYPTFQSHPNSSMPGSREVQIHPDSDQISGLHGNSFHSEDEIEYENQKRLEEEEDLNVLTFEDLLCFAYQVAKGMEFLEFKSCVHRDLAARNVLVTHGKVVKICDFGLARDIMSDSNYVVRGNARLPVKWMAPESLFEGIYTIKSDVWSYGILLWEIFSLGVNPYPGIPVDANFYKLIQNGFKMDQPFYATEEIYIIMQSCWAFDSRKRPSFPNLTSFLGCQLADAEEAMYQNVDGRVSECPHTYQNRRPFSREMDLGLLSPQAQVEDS
Outline: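 Wild-type human FLT3 (1.2 μg) pre-incubated with compound 15 min at 25° C in 100 mM HEPES pH 7.5, 10 mM MgCl2, 25 mM NaCl, 1 mM DTT. Reaction started with substrate peptide and ATP (final 50 μM), run 30 min at 25° C; phosphorylation read by time-resolved fluorescence.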

MV4-11 cells = experiment: Leukemia cell proliferation inhibition test (ATPlite), MV4-11; type: cell-based; conditions: Homo sapiens, read-out: MV4-11 cell proliferation inhibition effect
Outline: (§1)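 Proliferation inhibition is quantified from total cellular ATP, measured by luciferase luminescence, after cells grow with compound for 72 hours. The GI50 is the concentration giving half the signal of the 0.1% DMSO control, fitted to a sigmoid curve from duplicate points.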

Molm-13 cells = experiment: Leukemia cell proliferation inhibition test (ATPlite), Molm-13; type: cell-based; conditions: Homo sapiens, read-out: MOLM13 cell proliferation inhibition effect
Outline: as §1

[2] = GST-fused human FLT3 (564 to 993 aa), ATP 50 μM
[3] = MV4-11, 72 h, MV4-11, 72 hours culture, ATPlite, GI50 per method
[4] = MOLM-13, 72 h, Molm-13, 72 hours culture, ATPlite, GI50 per method

Compound | IC50 [1, 2] | IC50 (MV4-11 cells; [3]) | IC50 (Molm-13 cells; [4]) | IC50 ([1]; FLT3 (WT)) | IC50 (MV4-11 cells; MV4-11, MV4-11 cell) | IC50 (Molm-13 cells; MOLM-13, MOLM13 cell)
C[C@@H](C(=O)NCCCC#Cc1cnc(Nc2ccc(C#N)cc2)nc1-c1ccccc1)N(C)C(=O)/C=C/CN(C)C [Compound 20-1, (S,E)-N-(1-((5-(2-((4-cyanophenyl)amino)-4-phenylpyrimidin-5-yl)-4-pentyn-1-yl)amino)-1-oxopropan-2-yl)-4-(dimethylamino)-N-methyl-2-butenamide] | 10 to 100 nM | < 10 nM | < 10 nM | – | – | –
CNc1nc(Nc2ccc(OC)c(F)c2)ncc1C#CCCCNC(=O)[C@@H]1CCCN1C(=O)/C=C/CN(C)C [Compound 21-42] | – | – | – | < 10 nM | < 10 nM | < 10 nM
CCCNc1nc(Nc2ccnc(OC)c2)ncc1C#CCCCNC(=O)[C@@H]1C[C@H](F)CN1C(=O)/C=C/CN(C)C [Compound 9-37, (2S,4S)-1-((E)-4-(Dimethylamino)-2-butenoyl)-4-fluoro-N-(5-(2-((2-methoxypyridin-4-yl)amino)-4-(propylamino)pyrimidin-5-yl)-4-pentyn-1-yl)pyrrolidine-2-carboxamide] | < 10 nM | < 10 nM | < 10 nM | – | – | –
CCCNc1nc(Nc2cc(C)no2)ncc1C#CCCCNC(=O)[C@H](C)N(C)C(=O)/C=C/CN(C)C [Compound 7-78] | < 10 nM | < 10 nM | 10 to 100 nM | – | – | –
COc1ccc(Nc2ncc(C#CCCCNC(=O)[C@H](C)N(C)C(=O)/C=C/CN(C)C)c(NC3CC3)n2)cc1F [Compound 7-42, (S,E)-N-(1-((5-(4-(Cyclopropylamino)-2-((3-fluoro-4-methoxyphenyl)amino)pyrimidin-5-yl)-4-pentyn-1-yl)amino)-1-oxopropan-2-yl)-4-(dimethylamino)-N-methyl-2-butenamide] | < 10 nM | < 10 nM | < 10 nM | – | – | –
CNc1nc(Nc2ccc(F)cc2)ncc1C#CCCCNC(=O)[C@@H]1CC(F)(F)CN1C(=O)/C=C/CN(C)C [Compound 7-93] | < 10 nM | < 10 nM | < 10 nM | – | – | –
CCCNc1nc(Nc2ccc(C(N)=O)cc2)ncc1C(=O)Nc1cccc(NC(=O)[C@H](C)N(C)C(=O)/C=C/CN(C(C)C)C(C)C)c1 [Compound 4-7] | < 10 nM | < 10 nM | < 10 nM | – | – | –
CCCNc1nc(Nc2cccc(C(F)(F)F)c2)ncc1C#CCCCNC(=O)[C@H](C)N(C)C(=O)/C=C/CN(C)C [Compound 11-11] | < 10 nM | 10 to 100 nM | 10 to 100 nM | – | – | –
CNc1ncc(C#C[C@@H]2CCC[C@H](NC(=O)[C@H](C)N(C)C(=O)/C=C/CN(C)C)C2)c(NCc2cccc(F)c2)n1 [Compound 21-44] | – | – | – | < 10 nM | 10 to 100 nM | 10 to 100 nM
C[C@@H](C(=O)NCCCC#Cc1cnc(Nc2ccc(C#N)cc2)nc1NCCCF)N(C)C(=O)/C=C/CN(C)C [Compound 10-29] | < 10 nM | < 10 nM | < 10 nM | – | – | –
CCCNc1nc(Nc2ccc(OC)nc2)ncc1C#CCCCNC(=O)[C@H](C)N(C)C(=O)/C=C/CN(C)C [Compound 7-23] | < 10 nM | < 10 nM | 10 to 100 nM | – | – | –
CCCN(CCC)c1nc(Nc2ccc(F)cc2)ncc1C#CCCCNC(=O)CN(C)C(=O)/C=C/CN(C)C [Compound 10-22] | < 10 nM | < 10 nM | < 10 nM | – | – | –
C[C@@H](C(=O)NCCCC#Cc1cnc(Nc2cccc(F)c2)nc1OC1CCC1)N(C)C(=O)/C=C/CN(C)C [Compound 7-6] | < 10 nM | 10 to 100 nM | 10 to 100 nM | – | – | –
CCCNc1nc(Nc2ccc(C#N)cc2)ncc1C#CCCCNC(=O)[C@H](COC)N(C)C(=O)/C=C/CN(C)C [Compound 7-55] | < 10 nM | < 10 nM | < 10 nM | – | – | –
CCCNc1nc(Nc2ccc3c(c2)c(N(C)C)nn3C)ncc1C#CCCCNC(=O)[C@H](C)N(C)C(=O)/C=C/CN(C)C [Compound 22-12] | – | – | – | < 10 nM | < 10 nM | < 10 nM
CCCNc1nc(Nc2ccc(C(N)=O)cc2)ncc1C(=O)Nc1cccc(NC(=O)[C@H](C)N(C)C(=O)/C=C/CN(C)C)c1 [Compound 3-1, (S,E)-2-((4-carbamoylphenyl)amino)-N-(3-(2-(4-(dimethylamino)-N-methyl-2-butenamido)propanamido)phenyl)-4-(propylamino)pyrimidine-5-carboxamide] | < 10 nM | < 10 nM | < 10 nM | – | – | –
CCCNc1nc(Nc2ccc3c(F)nn(C)c3c2)ncc1C#CCCCNC(=O)[C@H](C)N(C)C(=O)/C=C/CN(C)C [Compound 22-58] | – | – | – | < 10 nM | < 10 nM | < 10 nM
CCCNc1nc(Nc2ccc3nnccc3c2)ncc1C(=O)NCCCNC(=O)[C@H](C)N(C)C(=O)/C=C/CN(C)C [Compound 6-10B] | < 10 nM | < 10 nM | < 10 nM | – | – | –
CCCNc1nc(Nc2ccc(C#N)cc2)ncc1C#CCCC(=O)NC(C)(C)CN(C)C(=O)/C=C/CN(C)C [Compound 8-16] | 10 to 100 nM | 10 to 100 nM | 100 to 1000 nM | – | – | –
CCCNc1nc(Nc2ccc3nccnc3c2)ncc1C#CCCCNC(=O)[C@H](C)N(C)C(=O)/C=C/CN(C)C [Compound 22-4] | – | – | – | < 10 nM | < 10 nM | < 10 nM
C=CC(=O)Nc1cccc(NC(=O)c2cnc(NCCc3ccncc3)nc2NCCC)c1 [Compound 2-25] | 10 to 100 nM | 100 to 1000 nM | 100 to 1000 nM | – | – | –
C[C@@H](C(=O)NCCCC#Cc1cnc(Nc2ccc(F)cc2)nc1N1CCCCC1)N(C)C(=O)/C=C/CN(C)C [Compound 10-38] | < 10 nM | < 10 nM | 10 to 100 nM | – | – | –

Now from value to compound:

IC50 [1, 2] | IC50 (MV4-11 cells; [3]) | IC50 (Molm-13 cells; [4]) | IC50 ([1]; FLT3 (WT)) | IC50 (MV4-11 cells; MV4-11, MV4-11 cell) | IC50 (Molm-13 cells; MOLM-13, MOLM13 cell) | Compound
< 10 nM | < 10 nM | < 10 nM | – | – | – | CC[C@@H](C(=O)NCCCC#Cc1cnc(Nc2ccc(F)nc2)nc1Nc1cccc(F)c1)N(C)C(=O)/C=C/CN(C)C [Compound 10-32]
< 10 nM | < 10 nM | < 10 nM | – | – | – | CNc1nc(Nc2ccc(F)cc2)ncc1C#CCCCNC(=O)[C@@H]1C[C@H](O)CN1C(=O)/C=C/CN(C)C [Compound 7-84]
10 to 100 nM | 10 to 100 nM | 100 to 1000 nM | – | – | – | C[C@@H](C(=O)NCCCC#Cc1cnc(Nc2cccc(F)n2)nc1NC1CC1)N(C)C(=O)/C=C/CN(C)C [Compound 9-23]
< 10 nM | < 10 nM | < 10 nM | – | – | – | C[C@@H](C(=O)NCCCC#Cc1cnc(Nc2cccc(F)c2)nc1NCCN1CCOCC1)N(C)C(=O)/C=C/CN(C)C [Compound 10-6]
< 10 nM | < 10 nM | 10 to 100 nM | – | – | – | C=CC(=O)NCC(=O)NC1CCCC(NC(=O)c2cnc(NCCc3ccncc3)nc2NCCC)C1 (stereo not drawn) [Compound 1-4]
< 10 nM | < 10 nM | < 10 nM | – | – | – | CNc1nc(Nc2ccc(F)cc2)ncc1C#CCCCNC(=O)[C@@H]1CCN1C(=O)/C=C/CN(C)C [Compound 7-86, (S,E)-1-(4-(Dimethylamino)-2-butenoyl)-N-(5-(2-((4-fluorophenyl)amino)-4-(methylamino)pyrimidin-5-yl)-4-pentyn-1-yl)azetidine-2-carboxamide]
< 10 nM | < 10 nM | < 10 nM | – | – | – | COc1ccc(Nc2nc(Nc3ccc(F)cc3)ncc2C#CCCCNC(=O)CN(C)C(=O)/C=C/CN(C)C)cn1 [Compound 10-20]
10 to 100 nM | 100 to 1000 nM | 100 to 1000 nM | – | – | – | C=CC(=O)NCCNC(=O)c1cnc(NCCc2ccncc2)nc1NCCC [Compound 2-17]
< 10 nM | < 10 nM | < 10 nM | – | – | – | C[C@@H](C(=O)Nc1cccc(C#Cc2cnc(NCCc3ccncc3)nc2N2CCOCC2)c1)N(C)C(=O)/C=C/CN(C)C [Compound 12-13, (S,E)-4-(dimethylamino)-N-methyl-N-(1-((3-((4-morpholino-2-((2-(pyridin-4-yl)ethyl)amino)pyrimidin-5-yl)ethynyl)phenyl)amino)-1-oxopropan-2-yl)-2-butenamide]
10 to 100 nM | 100 to 1000 nM | 100 to 1000 nM | – | – | – | C=CC(=O)NCC(=O)Nc1ccccc1CNC(=O)c1cnc(NCCc2ccncc2)nc1NCCC [Compound 2-29]
< 10 nM | < 10 nM | < 10 nM | – | – | – | CCCNc1nc(Nc2ccc(C#N)cc2)ncc1C#C[C@@H]1CC[C@H](NC(=O)[C@H](C)N(C)C(=O)/C=C/CN(C)C)C1 [Compound 13-11]
< 10 nM | < 10 nM | < 10 nM | – | – | – | C[C@@H](C(=O)NCCCC#Cc1cnc(Nc2ccc(C#N)cc2)nc1N1CCC(F)(F)C1)N(C)C(=O)/C=C/CN(C)C [Compound 10-42]
